Measurements reported in patent US10633358B2, “T-type calcium channel inhibitor” (KINKI UNIVERSITY, priority 2013, dated 2020).
Where two headings read alike, the source gives them in different places.

Assays:
[1] = molecular target: human T-type calcium channel (Homo sapiens, UniProt O95180); test: cell-based
Experimental: A T-type calcium channel inhibitory action of sophoraflavanone G was measured by a whole-cell patch method using a human renal cell-derived cell line: […] cell forced to express a human T-type calcium channel.
In the whole-cell patch method, a barium current passing as an inward current was measured in a potential jump from −80 mV to −20 mV with the holding potential set to −80 mV using, as an external solution and an internal solution, ones having the compositions shown below. Here, for eliminating influences of a high-threshold-activated-type calcium channel, a value obtained by subtracting from a peak current a current 150 ms after the start of stimulation was used as a T-current for data analysis.
External Solution Composition
Aqueous solution containing the following: 97 mM N-methyl-D-glucamine (NMDG);
10 mM 4-(2-hydroxyethyl)-1-piperazine ethanesulfonic acid (HEPES);
40 mM tetraethylammonium chloride (TEA-Cl); and
Internal Solution Composition
Aqueous solution containing the following:
5 mM glycol ether diamine tetraacetic acid (EGTA)
In FIG. 1, the data are shown as a ratio (%) of a T-current at addition of a compound to a T-current at addition of a solvent (DMSO).
Except that sophoraflavanone G was replaced by 6-prenylnaringenin, the same procedure as in Example 1 was carried out to measure a T-type calcium channel inhibitory action of […].
Except that sophoraflavanone G was replaced by 8-prenylnaringenin, the same procedure as in Example 1 was carried out to measure a T-type calcium channel inhibitory action of […].
These […] values are values calculated by GraphPad Prism® (GraphPad Software, Inc.) using the results of Examples 1 to 3.

[2] = tested on: NaHS-induced hyperalgesia; test: Action on NaHS-induced hyperalgesia, up-and-down method using a von Frey filament; format: in vivo; settings: male ddY mouse; for Action on NaHS-induced hyperalgesia (in words): paw sole administration
Experimental: Into the paw sole of a male ddY mouse, 0.1 nmol/paw (volume: 10 μL/paw) of NaHS (sodium hydrogen sulfide) was administered alone, […], and an action of sophoraflavanone G on NaHS-induced hyperalgesia was measured by an up-and-down method using a von Frey filament.
Here, NaHS (sodium hydrogen sulfide) is used as a H2S donor. H2S is a hyperalgesia-inducing substance which is involved in information transmission of pain through a Cav3.2 T-type calcium channel (see Kawabata A. et al. Hydrogen sulfide as a novel nociceptive messenger. Pain. 2007 November; 132(1-2): 74-81. Epub 2007 Mar. 7.).
Except that 6-prenylnaringenin was used in place of sophoraflavanone G, the same procedure as in Example 4 was carried out to measure an action of 6-prenylnaringenin on NaHS-induced hyperalgesia.
Except that 8-prenylnaringenin was used in place of sophoraflavanone G, the same procedure as in Example 4 was carried out to measure an action of 8-prenylnaringenin on NaHS-induced hyperalgesia.

L-type Ca2+ channel = molecular target: T1, L-type Ca2+ channel (Rattus norvegicus, UniProt P22002); test: K50-induced contraction in a ring preparation of a rat aorta (endothelium removed); format: cell-based; settings: for inhibition at 0.001 µM / inhibition at 0.003 µM / inhibition at 0.01 µM / inhibition at 0.03 µM / inhibition at 0.1 µM / inhibition at 0.3 µM / inhibition at 1 µM / inhibition at 3 µM: read-out: Inhibitory rate (%) on contraction by K50; for Selectivity T-type over L-type calcium channel (in words): conclusion from Examples 1-3 and 7-9; for Action on L-type calcium channel (in words): specimen pre-contracted by K50, up to 3 μM
T1 construct: A 1 mm-wide ring preparation was prepared from the thoracic aorta; from tissue; host or cells: thoracic aorta ring preparation (endothelium removed) of male Wistar rats
Experimental: For the experiment, 7 to 10 week-old male Wistar rats (Japan SLC, Inc., Shizuoka, Japan) were used. These experimental animals were bred in a chamber with a 12-hour light-dark cycle maintained at a temperature of about 24° C. while they were allowed to freely take tap water and a solid feed (Oriental Yeast Co., Ltd., Tokyo, Japan).
The rats were caused to hemorrhage to death by cutting the carotid artery under anesthesia, and the thoracic aorta was extracted. Connective tissues and fat were removed from the thoracic aorta in a cooled modified Kreb's liquid. A 1 mm-wide ring preparation was prepared from the thoracic aorta, and the lumen of the specimen was rubbed with rubber to remove the endothelium.
Two 100 μm tungsten wires were inserted into the lumen of the 1 mm-wide ring preparation, and the ring preparation was transferred to a liquid bath with a volume of 10 mL. […] The other ends of tungsten wires inserted into the lumen of the ring preparation were fixed to a tension transducer, and a change in tension of the specimen was isometrically measured. Signals from the tension transducer passed through a blood pressure amplifier to be recorded by a pen recorder. An initial stretching tension of 1 g was applied in a normal Kreb's liquid, and the specimen was equilibrated for 1 hour, and then caused to contract once by a 10^−6 M phenylephrine solution. This procedure was necessary for obtaining stable results. At the end of the experiment, verapamil (Vera) (10^−5 M) and papaverine (10^−4 M) were added to completely relax the specimen. The level at this time was set to 0 for all the measurements of a change in tension.
The reagents used were as follows. • Normal Kreb's liquid: NaCl (118 mM), KCl (4.7 mM), CaCl2 (2.5 mM), MgCl2 (1.2 mM), NaHCO3 (25 mM), KH2PO4 (1.2 mM) and glucose (10 mM) were diluted with H2O to 1 L, and ventilated for 10 minutes with a mixed gas of 95% of O2 and 5% of CO2, and 2.5 mL of a 1 M CaCl2 solution was then added. • Kreb's liquid (K50): NaCl (73.9 mM), KCl (48.8 mM), CaCl2 (2.5 mM), MgCl2 (1.2 mM), NaHCO3 (25 mM), KH2PO4 (1.2 mM) and glucose (10 mM) were diluted with H2O to 1 L, and ventilated for 10 minutes with a mixed gas of 95% of O2 and 5% of CO2, and 2.5 mL of a 1 M CaCl2 solution was then added. • Acetylcholine hydrochloride (Ach, manufactured by Sigma) • Verapamil hydrochloride (Vera, manufactured by Eisai Co., Ltd. (Tokyo)) • Papaverine hydrochloride (manufactured by Sigma) 5. Results
Thereafter, the specimen was washed three times with the Normal Kreb's liquid, and to the specimen caused to pre-contract by the Kreb's liquid (K50) containing 50 mM potassium ions, 1 μL of 1 μM of sophoraflavanone G (final concentration: 0.001 μM) dissolved in DMSO, 2 μL of 1 μM of the sophoraflavanone G (final concentration: 0.003 μM), 7 μL of 1 μM of the sophoraflavanone G (final concentration: 0.01 μM), 2 μL of 10 μM of the sophoraflavanone G (final concentration: 0.03 μM), 7 μL of 10 μM of the sophoraflavanone G (final concentration: 0.1 μM), 2 μL of 10 μM of the sophoraflavanone G (final concentration: 0.3 μM), 7 μL of 100 μM of the sophoraflavanone G (final concentration: 1 μM) and […] of the sophoraflavanone G (final concentration: 3 μM) were accumulatively added in a liquid bath containing 10 mL of the Kreb's liquid.
Except that 6-prenylnaringenin was used in place of sophoraflavanone G, the same procedure as in Example 7 was carried out to examine effects on an L-type Ca^2+ channel.
Except that 8-prenylnaringenin was used in place of sophoraflavanone G, the same procedure as in Example 7 was carried out to examine effects on an L-type Ca^2+ channel.

[3] = NaHS 0.1 nmol/paw sole + compound 0.1 nmol/paw sole
[4] = NaHS 0.1 nmol/paw sole + compound 1 nmol/paw sole
[5] = NaHS 0.1 nmol/paw sole + compound 10 nmol/paw sole
[6] = 0.001 μM final concentration, accumulatively added, rat aorta ring
[7] = 0.003 μM final concentration, accumulatively added, rat aorta ring
[8] = 0.01 μM final concentration, accumulatively added, rat aorta ring
[9] = 0.03 μM final concentration, accumulatively added, rat aorta ring
[10] = 0.1 μM final concentration, accumulatively added, rat aorta ring
[11] = 0.3 μM final concentration, accumulatively added, rat aorta ring
[12] = 1 μM final concentration, accumulatively added, rat aorta ring
[13] = 3 μM final concentration, accumulatively added, rat aorta ring
[14] = HEK293, read-out: Inhibition rate (%)

T1 sequence (P22002 whole entry): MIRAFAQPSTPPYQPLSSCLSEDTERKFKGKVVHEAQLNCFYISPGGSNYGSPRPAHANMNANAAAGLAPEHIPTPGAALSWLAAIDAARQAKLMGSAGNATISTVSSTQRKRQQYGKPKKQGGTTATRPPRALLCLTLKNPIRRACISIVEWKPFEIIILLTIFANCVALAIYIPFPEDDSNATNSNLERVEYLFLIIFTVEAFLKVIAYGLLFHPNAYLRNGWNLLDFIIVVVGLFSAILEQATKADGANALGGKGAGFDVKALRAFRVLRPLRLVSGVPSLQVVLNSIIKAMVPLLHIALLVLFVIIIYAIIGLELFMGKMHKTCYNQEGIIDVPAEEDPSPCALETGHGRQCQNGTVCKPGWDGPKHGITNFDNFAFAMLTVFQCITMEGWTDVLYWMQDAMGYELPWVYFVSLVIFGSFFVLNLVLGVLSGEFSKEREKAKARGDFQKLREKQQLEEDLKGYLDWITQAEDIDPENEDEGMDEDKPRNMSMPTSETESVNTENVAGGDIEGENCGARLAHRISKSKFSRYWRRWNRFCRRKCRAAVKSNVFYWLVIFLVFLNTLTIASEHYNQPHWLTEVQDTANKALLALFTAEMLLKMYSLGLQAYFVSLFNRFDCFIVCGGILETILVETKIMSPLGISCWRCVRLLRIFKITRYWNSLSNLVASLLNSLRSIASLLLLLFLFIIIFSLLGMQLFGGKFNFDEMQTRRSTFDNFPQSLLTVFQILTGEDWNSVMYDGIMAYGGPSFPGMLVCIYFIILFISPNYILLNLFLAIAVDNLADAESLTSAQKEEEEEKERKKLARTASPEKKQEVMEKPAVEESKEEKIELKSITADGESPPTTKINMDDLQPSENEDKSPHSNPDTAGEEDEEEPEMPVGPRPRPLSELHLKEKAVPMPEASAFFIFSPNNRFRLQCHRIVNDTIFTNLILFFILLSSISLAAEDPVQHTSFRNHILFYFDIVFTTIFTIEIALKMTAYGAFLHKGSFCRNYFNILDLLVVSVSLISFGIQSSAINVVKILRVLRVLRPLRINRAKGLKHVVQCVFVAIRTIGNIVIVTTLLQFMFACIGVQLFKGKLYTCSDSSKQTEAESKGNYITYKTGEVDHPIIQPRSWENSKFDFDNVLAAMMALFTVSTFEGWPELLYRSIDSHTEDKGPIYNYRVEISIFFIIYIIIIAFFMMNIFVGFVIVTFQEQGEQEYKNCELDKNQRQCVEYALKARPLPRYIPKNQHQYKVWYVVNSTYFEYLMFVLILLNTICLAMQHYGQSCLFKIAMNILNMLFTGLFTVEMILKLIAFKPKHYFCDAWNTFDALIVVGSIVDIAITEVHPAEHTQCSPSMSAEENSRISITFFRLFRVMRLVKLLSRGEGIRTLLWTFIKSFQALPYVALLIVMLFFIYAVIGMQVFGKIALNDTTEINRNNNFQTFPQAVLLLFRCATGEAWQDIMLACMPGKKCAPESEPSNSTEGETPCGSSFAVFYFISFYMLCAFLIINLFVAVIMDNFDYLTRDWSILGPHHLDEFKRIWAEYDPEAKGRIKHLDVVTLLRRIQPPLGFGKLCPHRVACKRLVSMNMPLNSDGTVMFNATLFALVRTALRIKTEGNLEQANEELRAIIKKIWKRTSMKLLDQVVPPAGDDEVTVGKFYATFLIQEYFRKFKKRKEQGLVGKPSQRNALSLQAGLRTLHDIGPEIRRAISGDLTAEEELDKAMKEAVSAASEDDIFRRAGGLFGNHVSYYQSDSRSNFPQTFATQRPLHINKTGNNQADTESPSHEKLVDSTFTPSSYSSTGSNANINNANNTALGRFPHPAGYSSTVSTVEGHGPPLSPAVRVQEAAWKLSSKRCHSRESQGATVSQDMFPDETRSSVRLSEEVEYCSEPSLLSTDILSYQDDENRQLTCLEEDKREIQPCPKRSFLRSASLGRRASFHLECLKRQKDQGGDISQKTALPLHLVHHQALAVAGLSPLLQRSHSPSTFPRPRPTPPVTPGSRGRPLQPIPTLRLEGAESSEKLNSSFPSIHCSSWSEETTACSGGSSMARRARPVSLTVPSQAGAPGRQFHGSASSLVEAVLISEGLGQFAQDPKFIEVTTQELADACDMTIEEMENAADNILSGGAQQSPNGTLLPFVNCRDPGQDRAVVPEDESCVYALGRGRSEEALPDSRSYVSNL
T1 sequence (P54290 25-944 partner limits assumed): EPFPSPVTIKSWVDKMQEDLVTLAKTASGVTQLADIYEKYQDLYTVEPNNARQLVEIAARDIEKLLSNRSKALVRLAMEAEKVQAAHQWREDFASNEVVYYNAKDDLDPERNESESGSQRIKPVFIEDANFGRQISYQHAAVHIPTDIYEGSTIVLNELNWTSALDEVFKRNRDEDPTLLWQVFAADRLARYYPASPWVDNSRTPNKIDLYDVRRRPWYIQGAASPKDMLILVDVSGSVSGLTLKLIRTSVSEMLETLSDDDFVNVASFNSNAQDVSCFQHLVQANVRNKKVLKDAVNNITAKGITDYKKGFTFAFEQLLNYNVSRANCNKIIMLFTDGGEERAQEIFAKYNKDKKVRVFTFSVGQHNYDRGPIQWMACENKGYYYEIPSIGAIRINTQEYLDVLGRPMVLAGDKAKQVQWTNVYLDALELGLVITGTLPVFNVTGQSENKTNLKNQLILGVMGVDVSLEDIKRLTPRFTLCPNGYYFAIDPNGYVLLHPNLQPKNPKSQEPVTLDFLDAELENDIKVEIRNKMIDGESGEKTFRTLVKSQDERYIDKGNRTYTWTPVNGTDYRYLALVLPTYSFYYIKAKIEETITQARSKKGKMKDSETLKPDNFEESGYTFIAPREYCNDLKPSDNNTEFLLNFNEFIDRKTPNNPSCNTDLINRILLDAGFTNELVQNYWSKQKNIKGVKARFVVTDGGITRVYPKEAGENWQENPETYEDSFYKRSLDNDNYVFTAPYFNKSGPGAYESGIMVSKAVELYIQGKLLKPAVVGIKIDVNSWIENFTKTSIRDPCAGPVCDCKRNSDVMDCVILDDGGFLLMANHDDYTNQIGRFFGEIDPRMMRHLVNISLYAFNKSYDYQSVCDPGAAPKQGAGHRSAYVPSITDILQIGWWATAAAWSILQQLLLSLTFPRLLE
T1 sequence (P54290 945-1091 partner limits assumed): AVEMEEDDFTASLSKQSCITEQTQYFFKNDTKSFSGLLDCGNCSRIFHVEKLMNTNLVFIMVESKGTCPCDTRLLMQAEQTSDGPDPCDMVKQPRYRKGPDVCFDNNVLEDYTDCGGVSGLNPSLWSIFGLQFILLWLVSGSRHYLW

Compound | Hyperalgesia threshold (g) Average value ± standard error [2, 3] [g] | Hyperalgesia threshold (g) Average value ± standard error [2, 4] [g] | Hyperalgesia threshold (g) Average value ± standard error [2, 5] [g] | Action on NaHS-induced hyperalgesia (in words) [2] | inhibition at 0.001 µM (L-type Ca2+ channel; [6]) [%] | inhibition at 0.003 µM (L-type Ca2+ channel; [7]) [%] | inhibition at 0.01 µM (L-type Ca2+ channel; [8]) [%] | inhibition at 0.03 µM (L-type Ca2+ channel; [9]) [%] | inhibition at 0.1 µM (L-type Ca2+ channel; [10]) [%] | inhibition at 0.3 µM (L-type Ca2+ channel; [11]) [%] | inhibition at 1 µM (L-type Ca2+ channel; [12]) [%] | inhibition at 3 µM (L-type Ca2+ channel; [13]) [%] | Selectivity T-type over L-type calcium channel (in words) (L-type Ca2+ channel) | Action on L-type calcium channel (in words) (L-type Ca2+ channel) | inhibition at 1 µM [1, 14] [%] | inhibition at 3 µM [1, 14] [%] | also measured
CC(C)=CCc1c(O)cc(O)c2c1O[C@H](c1ccc(O)cc1)CC2=O [8-Prenylnaringenin, (2S)-5,7-dihydroxy-2,3-dihydro-2-(4-hydroxyphenyl)-8-(3-methyl-2-butenyl)-4H-1-benzopyran-4-one] | 0.23 ± 0.04 | 0.41 ± 0.04 | 0.55 ± 0.05 | inhibits NaHS-induced hyperalgesia | 0 | 0 | 7.4 | 0 | 11.1 | 14.8 | 22.2 | 25.9 | T-type calcium channel-specific inhibitor | does not act on an L-type calcium channel |  |  | inhibition at 0.3 µM ([1]; HEK293, compound concentration 300 nM, T-current, HEK 293 cell expressing human T-type calcium channel, read-out: Inhibition rate (%)): 16.4%; inhibition at 1 µM ([1]; HEK293, compound concentration 1000 nM, T-current, HEK 293 cell expressing human T-type calcium channel, read-out: Inhibition rate (%)): 64.9%; inhibition at 3 µM ([1]; HEK293, compound concentration 3000 nM, T-current, HEK 293 cell expressing human T-type calcium channel, read-out: Inhibition rate (%)): 91%; inhibition at 10 µM ([1]; HEK293, compound concentration 10000 nM, T-current, HEK 293 cell expressing human T-type calcium channel, read-out: Inhibition rate (%)): 99.9%
C=C(C)[C@H](CC=C(C)C)Cc1c(O)cc(O)c2c1O[C@H](c1ccc(O)cc1O)CC2=O [Sophoraflavanone G, (2S)-5,7-dihydroxy-2,3-dihydro-2-(2,4-dihydroxyphenyl)-8-[(R)-5-methyl-2-(1-methylethenyl)-4-hexenyl]-4H-1-benzopyran-4-one] |  |  |  | inhibits NaHS-induced hyperalgesia | 0 | 0 | 5.6 | 5.6 | 5.6 | 5.6 | 11.1 | 8.3 | T-type calcium channel-specific inhibitor | does not act on an L-type calcium channel | 61.1 | 97.7 | inhibition at 0.5 µM [1, 14]: 25.9%; Hyperalgesia threshold (g) Average value ± standard error ([2]; NaHS 0.1 nmol/paw sole + compound 1 pmol/paw sole): 0.11 ± 0.04 g; Hyperalgesia threshold (g) Average value ± standard error ([2]; NaHS 0.1 nmol/paw sole + compound 10 pmol/paw sole): 0.35 ± 0.07 g; Hyperalgesia threshold (g) Average value ± standard error ([2]; NaHS 0.1 nmol/paw sole + compound 30 pmol/paw sole): 0.34 ± 0.10 g
CC(C)=CCc1c(O)cc2c(c1O)C(=O)C[C@@H](c1ccc(O)cc1)O2 [6-Prenylnaringenin, (2S)-5,7-dihydroxy-2,3-dihydro-2-(4-hydroxyphenyl)-6-(3-methyl-2-butenyl)-4H-1-benzopyran-4-one] | 0.28 ± 0.07 | 0.31 ± 0.06 | 0.52 ± 0.09 | inhibits NaHS-induced hyperalgesia |  |  |  |  |  |  |  |  | T-type calcium channel-specific inhibitor | does not act on an L-type calcium channel | 82.7 | 99 | inhibition at 0.3 µM [1, 14]: 0%; inhibition at 0.001 µM (L-type Ca2+ channel): 0%; inhibition at 0.003 µM (L-type Ca2+ channel): 0%; inhibition at 0.01 µM (L-type Ca2+ channel): 4.1%; inhibition at 0.03 µM (L-type Ca2+ channel): 6.1%; inhibition at 0.1 µM (L-type Ca2+ channel): 4.1%; inhibition at 0.3 µM (L-type Ca2+ channel): 4.1%; inhibition at 1 µM (L-type Ca2+ channel): 4.1%; inhibition at 3 µM (L-type Ca2+ channel): 4.1%
